In patent EP0787493A1, “Tetrahydroisoquinoline derivatives” (priority 1996, dated 1997):
Where two headings read alike, the source gives them in different places.

Assays:
NMDAR1C - NMDAR2B = target: T1, NMDAR1C - NMDAR2B (Rattus norvegicus, UniProt P35439+Q00960); test: Electrophysiology on recombinant NMDA receptors expressed in oocytes; type: cell-based; conditions: Xenopus laevis oocytes, voltage clamp -80 mV; 15 µM Asp plus 0.2 µM Gly; read-out: Electrophysiology/IC50 (µM) oocytes NMDAR 1C & 2B
T1 construct: expressed in transfected cells; host or cells: Xenopus laevis oocytes injected with in vitro transcribed mRNA (1:1 mixture)
From the text: (§1) Electrophysiology on recombinant NMDA receptors.
(§2) cDNA clones coding for the subunits NMDAR1C and NMDAR2A of the NMDA receptor (see Hollmann and Heinemann, 1994, Annu. Rev. Neurosci. 17: 31 for nomenclature of NMDA receptor subunits) were isolated from a rat brain λgt11 cDNA library as published elsewhere (Sigel et al., 1994, J. Biol. Chem. 269:8204). The clone for the subunit NMDAR2B of the rat brain NMDA receptor was obtained from S.Nakanishi (Kyoto, Japan). The cDNAs were transcribed, capped and poly(A^+)-tailed as described previously (Malherbe et al., 1990, Mol. Brain Res. 8: 199). Oocytes of South African frogs (Xenopus laevis) were used for expressing either a combination of the NMDAR1C and NMDAR2A subunits or the NMDAR1C and NMDAR2B subunits. Approximately 3 fmol of a 1:1 mixture of the respective mRNA species were injected into every oocyte. Four to five days later the ion current through the NMDA receptor channels was measured in voltage clamp experiments (see Methfessel et al., 1986, Pflügers Arch. 407: 577 for the methods of oocyte expression and voltage-clamping). The membrane potential was clamped to -80 mV and the receptors were activated by applying a modified Ringer's solution containing the agonists L-asparatate (Asp) and glycine (Gly). Different agonist concentrations were chosen for either subunit combination to account for the different agonist sensitivities of the two types of receptors (70 µM Asp plus 2.5 µM Gly for NMDAR1C - NMDAR2A and 15 µM Asp plus 0.2 µM Gly for NMDAR1C - NMDAR2B). The agonists were applied for 15 s intervals once every 2.5 min by rapid superfusion of the oocyte. After a series of initial control stimuli increasing concentrations of the antagonist to be tested were added to both, the basal Ringer's and the agonist containing solution. For the data analysis the amplitude (y) of the agonist-induced current was plotted versus the concentration (x) of the antagonist and the logistic function y =A/[1 +(x/IC50)^H ] [formula] was fitted to the data to estimate the 50 % inhibitory concentration (IC50). Three to six oocytes were tested for every antagonist and if possible, at least 3 concentrations embracing the IC50 were applied to every oocyte. […] In two other cases a concentration of 0.1 µM produced a slowly increasing block which exceeded 50% after 30 min. […] Figures for the IC50 in all other cases are arithmetic mean values of individual IC50s determined by the logistic curve fits.

NMDAR1C - NMDAR2A = target: T2, NMDAR1C - NMDAR2A (Rattus norvegicus, UniProt P35439+Q00959); test: as above; type: cell-based; conditions: Xenopus laevis oocytes, voltage clamp -80 mV; 70 µM Asp plus 2.5 µM Gly; read-out: Electrophysiology/IC50 (µM) oocytes NMDAR 1C & 2A
T2 construct: expressed in transfected cells; host or cells: Xenopus laevis oocytes injected with in vitro transcribed mRNA (1:1 mixture)
From the text: as §1, §2

NMDA receptors = test: 3H-MK801 (Dizocilpine) binding in vitro; conditions: rat whole brain membranes, 5nM 3H-MK-801, glutamate, glycine and spermidine present
Protocol: 3H-MK801 (Dizocilpine) binding in vitro
The whole brain from 150-200g male rats, without cerebellum and without medulla oblongata was dissected on ice. The tissue was then homogenized with an Ultra-Turrax maximum speed during 30 seconds at 4°C in 50 volumes of cold Tris HCI 50mM, EDTA disodium 10mM, pH=7.4 buffer (wet weight/v). The homogenate was centrifuged at 48'000 x g (20'000 rpm, SS34, Sorvall RC5C) for 10 minutes. The pellet was rehomogenized with the same volume of buffer and the homogenate incubated at 37°C for 10 minutes. After centrifugation as above, the pellet was rehomogenized with the same volume of buffer and frozen at -80°C in 35 ml fractions for at least 16 hours and not more than 2 weeks.
For the binding experiment, the homogenate was centrifuged as above and the pellet was washed 3 times by homogenization in 25 volumes of cold Tris HCl 5mM, pH=7.4 buffer (Ultra-Turrax, maximum speed, 30 seconds) and centrifugation as above. The final pellet was rehomogenized in 25 volumes of buffer (original wet weight) and used as such in the assay. The final concentration of membrane in the assay was 20mg/ml (wet weight).
The incubation was performed in the presence of 1nM glutamate, glycine and spermidine. MK-801, (+)-[3-3H(N)], NEN (NET-972) 20Ci/mmol, was used at 5nM final concentration. Non specific binding was determined in presence of […] TCP. After 2 hours of incubation at room temperature, the suspension was filtered (Whatmann GF/B, soaked in 0.1% polyethylenimine for 2 hours) and washed 5 times with 3 ml of cold Tris HCl 5mM, pH=7.4 buffer. The air-dried filters were counted with 10ml of Ultima-gold (Packard) in a Tri-Carb 2500 TR scintillation counter after agitation.
The DPM were transformed in % of specific binding and these values were treated by a non linear regression calculation program (BINDING, H. Affolter, Switzerland) which provided the IC50 values for the low and high affinity binding sites (= concentrations producing half maximal inhibition at the respective sites). Each experiment was repeated at least three times and the final IC50 values were calculated as the mean +/-standard deviation of the individual experiments.
Reference: R.W. Ransom and N.L. Stec. Journal of Neurochemistry 51, 830-836, 1988.

[1] = high affinity binding site, read-out: 3H-MK 801 / IC50 (µM) high
[2] = low affinity binding site, read-out: 3H-MK 801 / IC50 (µM) low

T2 sequence (Q00959 23-1464, other chains not shown): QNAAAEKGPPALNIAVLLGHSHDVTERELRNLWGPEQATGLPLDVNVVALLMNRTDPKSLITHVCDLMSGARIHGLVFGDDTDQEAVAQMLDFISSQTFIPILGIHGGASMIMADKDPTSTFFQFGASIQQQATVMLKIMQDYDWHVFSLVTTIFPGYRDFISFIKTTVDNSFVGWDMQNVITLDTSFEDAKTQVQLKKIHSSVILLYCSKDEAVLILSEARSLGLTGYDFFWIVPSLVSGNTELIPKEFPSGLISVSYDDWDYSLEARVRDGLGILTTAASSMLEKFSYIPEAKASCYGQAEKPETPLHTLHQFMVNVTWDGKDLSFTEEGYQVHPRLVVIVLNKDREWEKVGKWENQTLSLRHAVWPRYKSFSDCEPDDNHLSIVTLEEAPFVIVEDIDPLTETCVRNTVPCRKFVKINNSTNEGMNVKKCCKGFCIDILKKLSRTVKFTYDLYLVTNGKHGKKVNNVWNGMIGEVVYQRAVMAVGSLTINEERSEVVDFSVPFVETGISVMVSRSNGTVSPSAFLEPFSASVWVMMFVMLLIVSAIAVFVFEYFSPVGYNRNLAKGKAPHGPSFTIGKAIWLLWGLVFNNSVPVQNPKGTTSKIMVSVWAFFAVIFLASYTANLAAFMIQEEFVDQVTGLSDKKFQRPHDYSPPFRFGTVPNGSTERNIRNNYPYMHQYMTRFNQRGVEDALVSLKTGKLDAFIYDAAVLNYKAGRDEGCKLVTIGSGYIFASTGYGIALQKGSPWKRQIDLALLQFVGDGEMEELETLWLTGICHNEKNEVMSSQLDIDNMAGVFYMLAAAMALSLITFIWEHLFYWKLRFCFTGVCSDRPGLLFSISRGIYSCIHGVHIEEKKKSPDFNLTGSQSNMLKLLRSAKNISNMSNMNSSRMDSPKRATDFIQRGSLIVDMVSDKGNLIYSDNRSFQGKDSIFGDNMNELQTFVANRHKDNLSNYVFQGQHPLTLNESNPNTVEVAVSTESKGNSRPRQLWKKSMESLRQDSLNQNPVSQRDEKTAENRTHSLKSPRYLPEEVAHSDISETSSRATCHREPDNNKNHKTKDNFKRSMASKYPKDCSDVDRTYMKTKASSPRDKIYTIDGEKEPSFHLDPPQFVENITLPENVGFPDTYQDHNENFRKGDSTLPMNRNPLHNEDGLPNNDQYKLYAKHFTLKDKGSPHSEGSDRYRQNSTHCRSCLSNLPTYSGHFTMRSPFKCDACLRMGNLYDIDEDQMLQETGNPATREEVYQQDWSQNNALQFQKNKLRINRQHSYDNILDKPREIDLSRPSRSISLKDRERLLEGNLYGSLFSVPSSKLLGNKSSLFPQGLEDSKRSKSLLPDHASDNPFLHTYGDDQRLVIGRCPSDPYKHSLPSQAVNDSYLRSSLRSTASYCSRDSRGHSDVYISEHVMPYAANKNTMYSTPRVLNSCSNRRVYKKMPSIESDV
T1 sequence (Q00960 27-1482, other chains not shown): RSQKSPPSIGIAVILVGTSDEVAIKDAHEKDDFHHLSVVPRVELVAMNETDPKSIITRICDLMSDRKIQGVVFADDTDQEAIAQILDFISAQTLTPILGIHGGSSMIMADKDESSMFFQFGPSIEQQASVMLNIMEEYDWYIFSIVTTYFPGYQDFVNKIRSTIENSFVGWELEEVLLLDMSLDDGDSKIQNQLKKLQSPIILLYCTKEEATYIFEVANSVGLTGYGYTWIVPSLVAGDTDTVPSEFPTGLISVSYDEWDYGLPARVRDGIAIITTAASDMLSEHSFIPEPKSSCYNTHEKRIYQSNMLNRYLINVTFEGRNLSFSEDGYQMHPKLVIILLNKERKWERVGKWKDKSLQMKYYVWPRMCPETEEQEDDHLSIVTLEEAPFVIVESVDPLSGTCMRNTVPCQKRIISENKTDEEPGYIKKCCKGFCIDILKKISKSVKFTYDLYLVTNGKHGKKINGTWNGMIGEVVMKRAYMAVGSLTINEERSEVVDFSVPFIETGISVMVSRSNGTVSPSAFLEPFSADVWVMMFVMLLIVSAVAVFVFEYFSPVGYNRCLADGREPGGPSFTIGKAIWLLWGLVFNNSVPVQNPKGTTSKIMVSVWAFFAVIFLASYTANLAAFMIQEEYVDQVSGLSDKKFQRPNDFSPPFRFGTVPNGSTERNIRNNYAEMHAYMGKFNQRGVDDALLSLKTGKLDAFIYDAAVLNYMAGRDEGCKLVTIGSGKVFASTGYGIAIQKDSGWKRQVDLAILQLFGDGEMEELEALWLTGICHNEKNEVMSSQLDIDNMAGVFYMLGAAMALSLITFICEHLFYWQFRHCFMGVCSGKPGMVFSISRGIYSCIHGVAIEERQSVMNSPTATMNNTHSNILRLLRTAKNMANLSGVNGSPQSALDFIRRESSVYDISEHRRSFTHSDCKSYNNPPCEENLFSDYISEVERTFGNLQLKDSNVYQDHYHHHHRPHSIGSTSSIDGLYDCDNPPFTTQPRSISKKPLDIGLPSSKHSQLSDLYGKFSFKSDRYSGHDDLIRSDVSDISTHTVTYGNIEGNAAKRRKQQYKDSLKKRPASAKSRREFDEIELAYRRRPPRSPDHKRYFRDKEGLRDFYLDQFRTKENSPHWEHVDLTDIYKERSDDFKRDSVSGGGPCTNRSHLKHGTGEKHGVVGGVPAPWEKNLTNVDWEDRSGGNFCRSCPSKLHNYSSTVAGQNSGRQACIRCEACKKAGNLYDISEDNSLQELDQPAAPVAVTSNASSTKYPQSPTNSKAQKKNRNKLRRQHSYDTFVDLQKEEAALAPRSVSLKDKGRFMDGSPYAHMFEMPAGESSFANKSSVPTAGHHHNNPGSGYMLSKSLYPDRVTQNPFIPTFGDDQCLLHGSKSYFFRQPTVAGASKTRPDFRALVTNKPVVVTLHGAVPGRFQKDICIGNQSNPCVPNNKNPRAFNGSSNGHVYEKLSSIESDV

Row | Structure (SMILES) | IC50 (NMDAR1C - NMDAR2B) [µM] | IC50 (NMDAR1C - NMDAR2A) [µM] | IC50 (NMDA receptors; [1]) [µM] | IC50 (NMDA receptors; [2]) [µM]
1 | COc1cc2c(cc1OC)C(CC(O)c1ccc(Cl)cc1)N(C)CC2 (single isomer, unassigned) [C, 1-(4-Chloro-phenyl)-2-(6,7-dimethoxy-2-methyl-1,2,3,4-tetrahydroisoquinolin-1-yl)-ethanol] | 0.043 | > 20 | 0.12 | 191
2 | COc1cc2c(cc1OC)C(CC(O)c1ccc([N+](=O)[O-])cc1)N(C)CC2 (stereo not shown) [G, 2-(6,7-Dimethoxy-2-methyl-1,2,3,4-tetrahydroisoquinolin-1-yl)-1-(4-nitrophenyl)-ethanol] |  |  | 0.46 | 87
3 | COc1cc2c(cc1OC)C(CCc1ccc(C)cc1)N(C)CC2 (stereo not shown) [E, 6,7-Dimethoxy-2-methyl-1-(2-p-tolyl-ethyl)-1,2,3,4-tetrahydroisoquinoline] |  |  | 0.34 | 129
4 | COc1cc2c(cc1O)C(CCc1ccc(Cl)cc1)N(C)CC2 (stereo not shown) [B, 1-[2-(4-Chloro-phenyl)-ethyl]-6-methoxy-2-methyl-1,2,3,4-tetrahydroisoquinolin-7-ol] |  |  | 0.09 | 54
5 | COc1cc2c(cc1OC)C(CC(OC(C)=O)c1ccc(Cl)cc1)N(C)CC2 (stereo not shown) [Q] | 1.2 | 21 | 1.76 | 161
6 | COc1ccc2c(c1OC)CCN(C)C2CCc1ccc(Cl)cc1 (stereo not shown) [W] |  |  | 3.6 | 129
7 | CCC(=O)OC(CC1c2cc(OC)c(OC)cc2CCN1C)c1ccc(Cl)cc1 (stereo not shown) [S] |  |  | 2.18 | 123
8 | COc1cc2c(cc1OC)C(CCc1ccccc1)N(C)CC2 (stereo not shown) [R] |  |  | 2.1 | 147
9 | COc1cc2c(cc1OC)C(CCc1ccc(Cl)cc1)N(C)C1CCCCC21 (stereo not shown) [F, 6-[2-(4-Chloro-phenyl)-ethyl]-8,9-dimethoxy-5-methyl-1,2,3,4,4a,5,6,10b-octahydro-phenanthridine] | < 0.1 | > 30 | 0.4 | 315
10 | COc1cc2c(cc1OC)C(CC(O)c1cc(Cl)c(Cl)cc1Cl)N(C)CC2 (stereo not shown) [K] |  |  | 0.91 | 613
11 | COc1cc2c(cc1OC)C(CC(O)c1ccc(Cl)cc1)N(C)CC2 (single isomer, unassigned) [V] |  |  | 2.9 | 110
12 | COc1ccc(CCC2c3cc(OC)c(OC)cc3CCN2C)cc1 (stereo not shown) [M] |  |  | 1.39 | 95
13 | COc1cc2c(cc1OC)C(CCc1ccc([N+](=O)[O-])cc1)N(C)CC2 (stereo not shown) [U] |  |  | 2.71 | 87
14 | COc1cc2c(cc1OC)C1CCCCC1NC2CCc1ccc(Cl)cc1 (stereo not shown) [H, 6-[2-(4-Chloro-phenyl)-ethyl]-8,9,dimethoxy-1,2,3,4,4a,5,6,10b-octahydrophenanthridine] |  |  | 0.5 | 589
15 | COc1cc2c(cc1OC)C(CC(O)c1ccc(C)cc1)N(C)CC2 (stereo not shown) [A, 2-(6,7-Dimethoxy-2-methyl-1,2,3,4-tetrahydroisoquinolin-1-yl)-1-p-tolyl-ethanol] | ≤ 0.1 | > 100 | 0.04 | 223
16 | Cc1cc2c(cc1C)C(CCc1ccc(Cl)cc1)N(C)C(C)C2 (stereo not shown) [X] |  |  | 3.87 | 2230

Now from value to compound:

Row | IC50 (NMDAR1C - NMDAR2B) [µM] | IC50 (NMDAR1C - NMDAR2A) [µM] | IC50 (NMDA receptors; [1]) [µM] | IC50 (NMDA receptors; [2]) [µM] | Structure (SMILES)
17 |  |  | 1.59 | 370 | COc1cc2c(cc1OC)C(CCc1ccc(C(C)C)cc1)N(C)CC2 (stereo not shown) [N]
18 |  |  | 1.7 | 95 | CN1CCc2cc3c(cc2C1CCc1ccc(Cl)cc1)OCO3 (stereo not shown) [P]
19 |  |  | 4.62 | 185 | COc1cc2c(cc1OC)C(CCc1ccc(Cl)c(Cl)c1)N(C)CC2 (stereo not shown) [AA]
20 |  |  | 0.59 | 146 | COc1ccc(C(O)CC2c3cc(OC)c(OC)cc3CCN2C)cc1 (stereo not shown) [I]
21 | 0.28 | 19 | 0.29 | 116 | CN1CCc2cc(O)c(O)cc2C1CCc1ccc(Cl)cc1 (stereo not shown) [D, 1-[2-(4-Chloro-phenyl)-ethyl] -2-methyl-1,2,3,4-tetrahydro-isoquinoline-6,7-diol]
22 |  |  | 1.37 | 198 | COc1cc2c(cc1OC)C(CCc1ccc(Br)cc1)N(C)CC2 (stereo not shown) [L]
23 |  |  | 2.31 | 56 | CN1CCc2cc(O)c(O)cc2C1CCc1ccc(Cl)c(Cl)c1 (stereo not shown) [T]
24 |  |  | 1.6 | 101 | COc1cc2c(cc1OC)C(CCc1ccc([N+](=O)[O-])cc1)N(C)CC2 (stereo not shown) [O]
